Measured values as given in article PMC10846744, “Cathelicidin peptide analogues inhibit EV71 infection through blocking viral entry and uncoating” (PLOS Pathogens, 2024).
Where no end group is shown, it is not given here.

Assays:
[1] = system: mouse-adapted EV71 (mEV71); test: mEV71 infection inhibition in RD cells; assay type: cell-based, enterovirus 71 (EV71); details: mEV71 pre-incubated with LL-18 1 hr, titer 24 h.p.i (S5B Fig)
Experimental: Supplementary file ppat.1011967.s005.tif: S5 Fig LL-18 inhibits mEV71 infection in vivo. (A) 6-day-old ICR mice were infected with parental EV71 or mouse-adapted virus (mEV71) and the mice survival rate was determined. (B) RD cells infected with mEV71 pre-incubated with PBS or LL-18 for 1 hr were determined for virus titer 24 h.p.i. ***, P<0.001. (C) ICR mice infected with mEV71 or mEV71 pre-incubated with the indicated amount of LL-18 were sacrificed at 1 d.p.i. and viral titers from muscle were determined. ns, not significant; ***, P<0.001. (TIF) Click here for additional data file.

[2] = system: IFN-β; test: IFN-β production in RD cells (q-RT-PCR); assay type: cell-based, human
Experimental: For real-time PCR, cells were treated as described, and cellular total RNA was isolated using the Cell Total RNA Isolation Kit (ForeGene, China) according to the manufacturer’s protocol. The cDNA was synthesized using the ProtoScript II First Strand cDNA Synthesis Kit (New England Biolabs). cDNA was then determined with 2×RealStar Green Fast Mixture (GenStar, China) with the following primers: […]
Supplementary file ppat.1011967.s007.tif: S7 Fig Induction of IFN-β production by peptides. (A) RD cells treated with 1.5 μM LL-18 or LL-37 for indicated time and IFN-β production was detected by q-RT-PCR. (B) RD cells treated with EV71 viruses pre-treated with PBS or LL-18 for indicated time and IFN-β production was detected by q-RT-PCR. ns, not significant; **, P<0.01; ***, P<0.001. (TIF) Click here for additional data file.

[3] = system: EV71 virus; test: 1H NMR titration of peptide with EV71 virus; assay type: binding, enterovirus 71 (EV71); details: molar ratio peptide to virus 90:1, 800 MHz, 298k
Experimental: The NMR titrations were performed on a Bruker 800 MHz (Avance NEO) spectrometer equipped with cryo-probe. The molar ratio of the peptide to the virus was 90:1. The experiments were recorded using zgespg pulse for 128 scans at 298k and the results were analyzed by Topspin.

[4] = system: EV71 virions; test: Viral particle ultracentrifugation (uncoating with SCARB2 at pH 5.5); design: species or system enterovirus 71 (EV71); details: EV71 MOI = 10, 1.5 μg SCARB2, pH 5.5, 37°C 2 hrs, iodoxanol gradient ultracentrifugation, immunoblotting
Experimental: (§1) Fig 6 LL-18 stabilizes the viral particles by inhibiting uncoating. (A) EV71 virus (MOI = 10) was pre-incubated with PBS, indicated amount of LL-18 or NaCl for 1 hr and then mixed with SYBR green dyes II before they were heated to indicated temperatures. The fluorescent signals were measured and plotted against temperature. PBS was used as a negative control. (B) EV71 virus (MOI = 10) was pre-incubated with PBS, LL-18, or 12s for 2 hrs. Half of the samples were then treated with 1.5 μg SCARB2 protein and incubated at 37°C for 2 hrs at pH 5.5. Samples were then subjected to ultracentrifugation as detailed in materials and methods. The numbers above represent the fractions collected from top to bottom.
EV71 viruses were pre-incubated with either PBS, 12s, or LL-18 for 1 hr. Then half the samples were treated with 1.5 μg purified SCARB2 protein (Sino Biological, China) with pH adjusted to 5.5. The samples were incubated at 37°C for 2 hrs to simulate the virus uncoating environment. Viral particles were then loaded onto iodoxanol gradients (0% 500 μL, 21% 1 mL, 27% 1 mL, 33% 1 mL, 39% 1 mL) and ultra-centrifuged at 4°C, 45000 rpm for 1.5 hrs. 7 fractions were collected from the top, and samples were precipitated with Trichloroacetic acid (TCA) before being analyzed with immunoblotting.

[5] = system: EV71 virions; test: Viral particle stability thermal release assay (PaSTRY); design: species or system enterovirus 71 (EV71); details: EV71 MOI = 10 pre-incubated with LL-18 or NaCl, SYBR green II, heated 25°C to 80°C; PBS control around 45°C
Experimental: as §1
EV71 viruses were preincubated with either PBS, NaCl or the indicated amount of LL-18 at room temperature for 2 hrs, before Sybr green II dye (3× working concentration, Solarbio, China) and RNase inhibitor (1 U/μL, Thermo Scientific) were added. The mixture was heated from 25°C to 80°C with an increment of 0.5°C for 30 seconds, and the fluorescence from SYBR green was monitored with a QuantGene 9600 real-time PCR system (Bioer, China).

[6] = system: EV71 virus; test: Time-of-addition study; assay type: cell-based, enterovirus 71 (EV71)
Experimental: Fig 2 LL-18 and FF-18 inhibit EV71 infection at the early stages of infection. (A-B) NanoLuc-EV71 reporter virus (A) or EV71 virus (MOI = 1, B) was pre-incubated with 1.5 μM LL-18 or FF-18 for 1 hr before they were used to infect RD cells. Luciferase (A) or viral RNA (B) was determined at indicated time points. Viral RNAs were normalized to mock treated cells at 1 h.p.i. ***, P<0.001. (C-E) EV71 virus (MOI = 1) was either pre-incubated with 1.5 μM LL-18 before infection (-2 and -1 time points), added simultaneously with LL-18 (0 time point) or LL-18 was added at indicated time points post-infection (1, 2, 4, 7 time points) and viral VP1 expression (C), cell viability (D), or viral titer (E) was determined 24 h.p.i. ns, not significant; **, P<0.01; ***, P<0.001. (F-H) EV71 virus (MOI = 1) was either pre-incubated with 1.5 μM FF-18 before infection (-2 and -1 time points), added simultaneously with FF-18 (0 time point) or FF-18 was added at indicated time points post-infection (1, 2, 4, 7 time points) and viral VP1 expression (F), cell viability (G), or viral titer (H) was determined 24 h.p.i. ns, not significant; **, P<0.01; ***, P<0.001.
Synthetic peptides were purchased from Bioyears Co. Ltd. (Wuhan, China) with purity of more than 95% and dissolved in PBS. […] Cell viability, viral titer, or viral protein expression was determined 24 h.p.i. […]

Sequence: FRKSKEKIGKLFKRIVQRILDFLRNLV [LL-18]
- inhibition of mEV71 infection in RD cells (virus titer) [1]: could still inhibit the infection of this mEV71 strain in RD cells
- interferon (IFN-β) production after pre-incubation of peptide with viruses ([2]; RD cells treated with EV71 pre-treated with LL-18, q-RT-PCR (S7B Fig)): reduced its ability to induce interferon production
- induction of interferon (IFN-β) production by peptide alone ([2]; RD cells, 1.5 μM peptide, q-RT-PCR (S7A Fig)): could induce interferon production
- interaction of peptide with EV71 virus by 1H 1D NMR (amide region) [3]: chemical shift perturbation with multiple new peaks was observed
- inhibition of uncoating (VP1 distribution in density gradient fractions) [4]: remained in the higher density fractions
- temperature of peak SYBR green fluorescence intensity (RNA release) [5]: 53 °C
- inhibition of VP1 expression, virus-induced cell death, virus titer; peptide added after virus infection [6]: little inhibition
- inhibition of VP1 expression, virus-induced cell death, virus titer; peptide added before virus infection [6]: Potent inhibition
